Consider eleven compounds from ChEMBL document CHEMBL3232786, “Therapeutic utility of cannabinoid receptor type 2 (CB(2)) selective agonists” (J Med Chem, 2013).

For series [1], the species on record is Homo sapiens. Kind of series: Selectivity ratio of Ki for human CB1 receptor to Ki for human CB2 receptor.
Series [2] concerns the target T1, Cannabinoid receptor 1 (Homo sapiens, UniProt P21554). Kind of series: Displacement of [3H]-CP55940 from human CB1 receptor expressed in CHO-K1 cells by liquid scintillation counting. Format: cell-based. For orientation: Loss of bound radioactivity is the signal in a displacement assay; it reports binding, not function.
Series [3] has as its system Rattus norvegicus. Kind of series: Antiallodynic activity in ip dosed rat spinal nerve ligation model of neuropathic pain assessed as attenuation of hind paw withdrawal latency. Format: functional.
Series [4] deals with Rattus norvegicus. Kind of series: Antiallodynic activity in ip dosed paclitaxel-induced neuropathic rat model assessed as attenuation of hind paw withdrawal latency after 30 mins. It counts as functional. Particulars: 0.5 h.
Series [5] addresses T2, Cannabinoid receptor 1 (Rattus norvegicus, UniProt P20272). Kind of series: Displacement of [3H]SR141716A from rat CB1 receptor expressed in CHO-K1 cells by liquid scintillation spectrophotometry. It counts as cell-based.
The target of series [6] is T3, Cannabinoid receptor 2 (Rattus norvegicus, UniProt Q9QZN9).
T3 sequence (Q9QZN9 whole entry): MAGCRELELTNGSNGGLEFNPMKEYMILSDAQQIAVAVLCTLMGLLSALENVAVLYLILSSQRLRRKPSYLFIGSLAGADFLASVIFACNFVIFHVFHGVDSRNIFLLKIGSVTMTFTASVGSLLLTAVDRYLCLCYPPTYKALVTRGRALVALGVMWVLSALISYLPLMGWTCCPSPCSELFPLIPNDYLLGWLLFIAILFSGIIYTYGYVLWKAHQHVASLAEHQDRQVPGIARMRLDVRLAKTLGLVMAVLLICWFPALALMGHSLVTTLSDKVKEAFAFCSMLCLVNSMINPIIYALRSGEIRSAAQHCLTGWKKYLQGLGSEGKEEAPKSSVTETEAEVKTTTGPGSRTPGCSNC
Put plainly: Displacement of [3H]-CP55940 from rat CB2 receptor expressed in CHO-K1 cells by liquid scintillation spectrophotometry. It counts as cell-based.

Series [7] addresses T4, Cannabinoid receptor 2 (Homo sapiens, UniProt P34972). Kind of series: Binding affinity to human CB2 receptor.
The target in series [8] is T1, Cannabinoid receptor 1. Kind of series: Agonist activity at CB1 receptor (unknown origin) assessed as cAMP production. Format: functional. A general note: Changes in cAMP serve as a functional read-out for many G protein-coupled receptors.
In series [9] the target is T1, Cannabinoid receptor 1. Kind of series: Binding affinity to human CB1 receptor.
Series [10] deals with Transient receptor potential cation channel subfamily V member 1 (Homo sapiens, UniProt Q8NER1). Put plainly: Activation of human VR1 expressed in HEK293 cells assessed as stimulation of Ca2+ influx. Format: cell-based.
Series [11] deals with T1, Cannabinoid receptor 1. Kind of series: Agonist activity at human CB1 receptor expressed in CHO cells assessed as effect on [35S]-GTPgammaS binding after 30 mins by scintillation counting. Format: functional, cell-based.
Series [12] has as its target T4, Cannabinoid receptor 2. Kind of series: Agonist activity at human CB2 receptor expressed in Sf9 membranes assessed as effect on [35S]-GTPgammaS binding after 30 mins by scintillation counting. It counts as functional, cell membranes. On the technique in general: GTPγS resists hydrolysis and so accumulates on activated G proteins.
Series [13] can be described thus: AUC (0 to 24 hrs ) in dog at 30 mg/kg. It counts as ADME, organism-based, Canis lupus familiaris. On the set-up: dose 30 mg/kg. Conditions: plasma.
The nature of series [14]: Cmax in dog at 30 mg/kg. Particulars: in vivo. On the set-up: dose 30 mg/kg. It counts as ADME, organism-based, Canis lupus familiaris.
The target of series [15] is T2, Cannabinoid receptor 1. Kind of series: Displacement of [3H]HU-243 from CB1 receptor of rat brain synaptosomal membranes.
In series [16] the target is T1, Cannabinoid receptor 1. Kind of series: Displacement of [3H]-CP55940 from human CB1 receptor transfected in CHO cells after 30 mins by liquid scintillation spectrometry. It counts as cell-based.
Series [17] has as its target T4, Cannabinoid receptor 2. Kind of series: Displacement of [3H]-CP55940 from human CB2 receptor transfected in CHO cells after 30 mins by liquid scintillation spectrometry. Format: cell-based.
For series [18], the target named is T4, Cannabinoid receptor 2. Kind of series: Displacement of [3H]-CP55940 from human CB2 receptor expressed in CHO-K1 cells by liquid scintillation counting. Format: cell-based.
Series [19] is described as follows: Clearance in rat. It counts as ADME, organism-based. Conditions: in vivo.
The target in series [20] is T3, Cannabinoid receptor 2. Kind of series: Agonist activity at rat CB2 receptor expressed in CHO-K1 cells assessed as inhibition of forskolin-induced cAMP accumulation. Format: functional, cell-based.
The species named for series [21] is Homo sapiens. Kind of series: Selectivity ratio of Ki for CB1 human receptor to Ki for human CB2 receptor.
In series [22] the target is T1, Cannabinoid receptor 1. Put plainly: Displacement of [3H]-CP55940 from human CB1 receptor by liquid scintillation counting.
Series [23] has as its target T4, Cannabinoid receptor 2. Kind of series: Displacement of [3H]-CP55940 from human CB2 receptor expressed in CHO cells by liquid scintillation counting. It counts as cell-based.
The target of series [24] is T4, Cannabinoid receptor 2. Kind of series: Displacement of [3H]-CP55940 from human CB2 receptor expressed in HEK293 cells after 90 mins by liquid scintillation counting. It counts as cell-based.
In series [25] the target is Cannabinoid receptor 1 (Mus musculus, UniProt P47746). Put plainly: Agonist activity at CB1 receptor in Swiss Webster mouse vas deferens assessed as inhibition of electrically-stimulated muscle contraction.
The target of series [26] is T1, Cannabinoid receptor 1. Kind of series: Displacement of [3H]-CP55940 from human CB1 receptor expressed in HEK293 cells after 90 mins by liquid scintillation counting. Format: cell-based.
The target of series [27] is T1, Cannabinoid receptor 1. Put plainly: Agonist activity at human CB1 receptor assessed as inhibition of forskolin-induced cAMP production. Format: functional.
For series [28], the target named is T4, Cannabinoid receptor 2. Kind of series: Agonist activity at human CB2 receptor assessed as inhibition of forskolin-induced cAMP production. Format: functional.

T4 sequence (P34972 whole entry): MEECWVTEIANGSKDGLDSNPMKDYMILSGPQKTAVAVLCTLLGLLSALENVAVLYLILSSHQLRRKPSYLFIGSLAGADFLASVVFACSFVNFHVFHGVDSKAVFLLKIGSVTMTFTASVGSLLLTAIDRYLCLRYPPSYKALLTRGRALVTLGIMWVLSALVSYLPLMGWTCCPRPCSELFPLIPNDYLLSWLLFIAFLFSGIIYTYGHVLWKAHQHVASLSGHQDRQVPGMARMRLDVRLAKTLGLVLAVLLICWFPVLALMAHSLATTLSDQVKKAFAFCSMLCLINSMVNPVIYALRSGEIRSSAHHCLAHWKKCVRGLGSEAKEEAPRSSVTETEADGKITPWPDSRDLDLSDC
T1 sequence (P21554 whole entry): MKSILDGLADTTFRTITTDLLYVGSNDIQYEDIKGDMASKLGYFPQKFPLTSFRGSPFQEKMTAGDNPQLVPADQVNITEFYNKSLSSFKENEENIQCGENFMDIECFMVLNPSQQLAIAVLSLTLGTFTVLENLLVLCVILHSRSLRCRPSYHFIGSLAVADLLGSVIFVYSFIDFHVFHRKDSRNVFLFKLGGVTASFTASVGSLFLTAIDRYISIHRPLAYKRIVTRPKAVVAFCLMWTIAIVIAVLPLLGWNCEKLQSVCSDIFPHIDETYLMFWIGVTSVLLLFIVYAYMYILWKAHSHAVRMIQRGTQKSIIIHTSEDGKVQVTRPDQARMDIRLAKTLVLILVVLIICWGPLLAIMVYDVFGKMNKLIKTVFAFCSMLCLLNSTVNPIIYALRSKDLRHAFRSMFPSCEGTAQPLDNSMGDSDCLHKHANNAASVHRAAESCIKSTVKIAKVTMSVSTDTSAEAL
T2 sequence (P20272 whole entry): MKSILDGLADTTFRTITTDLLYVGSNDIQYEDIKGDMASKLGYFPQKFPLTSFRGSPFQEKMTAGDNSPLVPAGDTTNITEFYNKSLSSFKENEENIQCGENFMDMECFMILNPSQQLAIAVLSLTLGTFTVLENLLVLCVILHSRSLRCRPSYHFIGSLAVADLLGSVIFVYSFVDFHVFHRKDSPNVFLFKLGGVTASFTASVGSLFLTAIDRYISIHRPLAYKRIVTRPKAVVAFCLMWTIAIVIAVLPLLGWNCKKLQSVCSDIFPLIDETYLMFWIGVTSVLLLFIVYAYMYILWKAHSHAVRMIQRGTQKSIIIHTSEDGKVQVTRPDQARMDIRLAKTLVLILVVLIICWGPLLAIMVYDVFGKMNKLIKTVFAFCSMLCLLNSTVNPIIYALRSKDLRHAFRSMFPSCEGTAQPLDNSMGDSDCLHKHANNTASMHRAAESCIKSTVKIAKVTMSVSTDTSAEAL
Chain of Transient receptor potential cation channel subfamily V member 1 (Q8NER1 whole entry): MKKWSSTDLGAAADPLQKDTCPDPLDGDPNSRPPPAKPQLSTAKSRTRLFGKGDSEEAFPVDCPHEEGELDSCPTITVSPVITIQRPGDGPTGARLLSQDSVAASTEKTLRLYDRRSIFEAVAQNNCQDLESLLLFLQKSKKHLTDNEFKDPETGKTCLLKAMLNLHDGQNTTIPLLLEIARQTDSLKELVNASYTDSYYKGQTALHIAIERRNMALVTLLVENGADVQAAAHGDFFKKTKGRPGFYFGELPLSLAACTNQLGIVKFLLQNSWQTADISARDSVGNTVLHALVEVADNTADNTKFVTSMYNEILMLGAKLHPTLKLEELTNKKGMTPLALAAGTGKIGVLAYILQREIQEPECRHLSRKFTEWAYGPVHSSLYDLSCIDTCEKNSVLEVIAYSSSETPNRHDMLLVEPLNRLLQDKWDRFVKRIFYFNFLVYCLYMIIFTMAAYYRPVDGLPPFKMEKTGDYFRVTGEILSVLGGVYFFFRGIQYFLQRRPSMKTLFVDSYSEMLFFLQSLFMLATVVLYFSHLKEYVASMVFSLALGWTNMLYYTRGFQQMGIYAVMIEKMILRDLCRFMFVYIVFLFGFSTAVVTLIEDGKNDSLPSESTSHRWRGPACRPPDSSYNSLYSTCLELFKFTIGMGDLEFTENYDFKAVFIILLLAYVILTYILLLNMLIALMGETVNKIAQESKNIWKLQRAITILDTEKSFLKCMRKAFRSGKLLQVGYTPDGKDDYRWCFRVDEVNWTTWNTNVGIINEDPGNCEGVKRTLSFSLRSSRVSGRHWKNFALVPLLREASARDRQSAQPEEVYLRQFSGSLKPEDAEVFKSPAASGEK
Chain of Cannabinoid receptor 1 (Mus musculus, UniProt P47746) (P47746 whole entry): as the sequence (P20272 whole entry) above, with E95D counted along it

Take `CC1(Cc2ccccc2)COc2cc(C(=O)N3CCCCC3)ccc21` (configuration not stated): in the series listed under Homo sapiens [1], the Ratio Ki is > 23. For the same compound, the Ki (usually the equilibrium dissociation constant of an inhibitor or competing ligand from its target) on Cannabinoid receptor 1 [2] is > 10000 nM; on Cannabinoid receptor 1 [5] it was 2560 nM; at Cannabinoid receptor 2 [6], 238 nM. Also, the ED50 – broadly, the dose at which the effect has come halfway, by size or by number of responders – stood at 7.5 mg/kg in the series with Rattus norvegicus [3] and 24 mg/kg in the series with Rattus norvegicus [4].
On to `CCCCCCC(C)(C)c1cc(O)c2c(c1)OC(C)(C)[C@@H]1CC=C(C(=O)O)C[C@@H]21` [LENABASUM], for which the results for the Ki at Cannabinoid receptor 2 [7] and at Cannabinoid receptor 1 [9] were 170 nM and 32.3 nM, respectively. Besides, the Ratio Ki in the series listed under Homo sapiens [1] was found to be 0.19. Moreover, the concentration giving a half-maximal response (EC50) (commonly the concentration that produces a half-maximal response) at Cannabinoid receptor 1 [8] came to 927 nM.
Consider `CCCCC/C=C\C/C=C\C/C=C\C/C=C\CCCC(=O)NCCO` [ANANDAMIDE], for which the EC50 in [10] came to 630 nM.
Consider `Cc1nc(N2CCN(C)CC2)c2nc(-c3ccccc3Cl)n(C(C)CO)c2n1` (configuration not stated), for which the 50% effective concentration (EC50) on Cannabinoid receptor 1 [11] is > 100000 nM; at Cannabinoid receptor 2 [12] it was 22.4 nM. In addition, in series [13], the exposure AUC(0-t) (usually exposure summed from dosing to a finite time, without extrapolation to infinity) at 24 h was found to be 44400 ng·h/mL. Besides, the concentration in [14] peaked (Cmax) at 7540 ng/mL.
Consider `CCCCCCC(C)(C)c1cc(OC)c([C@H]2C=C(CO)[C@H]3C[C@@H]2C3(C)C)c(OC)c1`, for which the inhibitory constant (Ki) at Cannabinoid receptor 1 [15] is > 10000 nM.
As to `CC1=CC[C@@H]2[C@@H](C1)c1c(OC(=O)CCCN3CCOCC3)cc(C(C)(C)CCCCC#N)cc1OC2(C)C`, the Ratio Ki in the series listed under Homo sapiens [1] stood at 0.36. The figures for the inhibitory constant (Ki) on Cannabinoid receptor 1 [16] and at Cannabinoid receptor 2 [17] were 4 nM and 11 nM, respectively.
With `Cn1c(C2(C)CC2)c/c(=N\C(=O)c2cc(C(F)(F)F)ccc2OCC(C)(C)O)n1C[C@H]1CCCO1`, the Ratio Ki in the series listed under Homo sapiens [1] was > 57000. For the same compound, the IC50 at Cannabinoid receptor 1 [2] (read-out: EC50 (the source's name)) was > 27000 nM. This compound had an EC50 at Cannabinoid receptor 2 [18] of 0.47 nM. Further, the clearance (usually the volume of plasma or blood freed of the substance per unit of time) in [19] is 30 mL/min/kg.
As for `CN1CCCC[C@H]1Cn1cc(C(=O)c2cc([N+](=O)[O-])ccc2I)c2ccccc21`, the EC50 at Cannabinoid receptor 2 [20] is 785 nM.
Take `CCCCCCC(C)(C)c1cc(OC)c([C@]2(O)CCC[C@@H](C)C2)c(OC)c1`: in the series filed under Homo sapiens [21], the Ratio Ki worked out at 220. The inhibitory constant (Ki) on Cannabinoid receptor 1 [22] stood at 5060 nM; at Cannabinoid receptor 2 [23] it was 23.1 nM.
`CN(C)CCNc1cnn(C2CC(C)(C)CC(C)(C)C2)c(=O)c1Br`: the inhibitory constant (Ki) came to 42 nM on Cannabinoid receptor 2 [24] and 7410 nM at Cannabinoid receptor 1 [26]. In addition, the EC50 on Cannabinoid receptor 1 [25] was 820 nM.
As to `O=C(NC12CC3CC(CC(C3)C1)C2)c1nn(-c2ccc(Cl)c(Cl)c2)c2c1CCCC2`, the EC50 worked out at 37 nM at Cannabinoid receptor 1 [27] and 2.5 nM at Cannabinoid receptor 2 [28].
